The results in this text go back to patent publication US11014895B2, “Heterocyclic urea compound, and drug composition and application thereof” (CHINA PHARMACEUTICAL UNIVERSITY, priority 2017, dated 2021).

In test [1] the target is IDO1 enzyme (Homo sapiens, UniProt P14902). The test can be described thus: Determination of biochemical activity of IDO1 enzyme (absorbance at 320 nm). The following applies: room temperature, 3 hours. How it is done:
(1) Method for Determining Biochemical Activity of IDO1 Enzyme
Firstly, 15 μl of buffer solution of sodium hydrogen phosphate (PH:7-8), 5 μl of reaction buffer solution containing a proper amount of IDO-1 enzyme and heterocyclic urea compound prepared by the invention were added into wells of a microplate, mixed evenly, and reacted at room temperature for 3 hours; then a light absorption value at 320 nm wavelength was detected by using Envision Multilabel Reader of PE company, an inhibition rate of the heterocyclic urea compound on the enzyme reaction was calculated according to an absorption ratio, and an IC50 value of the heterocyclic urea compound was calculated through analysis by GraphPad.

In test [2] the target is T1, IDO1 enzyme in the Hela cell (Homo sapiens, UniProt P14902).
T1 construct: endogenous in cells; host or cells: HeLa cells stimulated with interferon γ (100 ng/ml)
The test can be described thus: Cell activity: interferon γ-stimulated Hela cells, absorbance of supernatant at 480 nm. The format is cell-based. The note with it: interferon γ 100 ng/ml, 72 hours. As to the method:
(2) Method for Determining Cell Activity
Hela cells were cultured and passaged in a DMEM medium supplemented with antibiotics in a 37° C. CO2 incubator, inoculated into a 96-well plate for overnight culture, then 1 μl of heterocyclic urea compound with appropriate concentration was added to each well, and then 100 μl of interferon γ (final concentration was 100 ng/ml) was added. After the cells were continuously cultured for 72 hours, 70 μl of cell culture supernatant was added to a 96-well V-bottom plate, 5 μl of trichloroacetic acid (6.1 N) was added to each well, incubated at 50° C. for 30 min, then taken out and centrifuged at […] for 10 min. The above centrifuged supernatant was transferred to a 384-well microplate (20 μl/well), then 20 μl of 2% didimethylaminobenzaldehyde acetic acid solution was added to each well, shaken and mixed evenly, then photometric absorption was performed at 480 nm, and values were measured.

T1 sequence (P14902 whole entry): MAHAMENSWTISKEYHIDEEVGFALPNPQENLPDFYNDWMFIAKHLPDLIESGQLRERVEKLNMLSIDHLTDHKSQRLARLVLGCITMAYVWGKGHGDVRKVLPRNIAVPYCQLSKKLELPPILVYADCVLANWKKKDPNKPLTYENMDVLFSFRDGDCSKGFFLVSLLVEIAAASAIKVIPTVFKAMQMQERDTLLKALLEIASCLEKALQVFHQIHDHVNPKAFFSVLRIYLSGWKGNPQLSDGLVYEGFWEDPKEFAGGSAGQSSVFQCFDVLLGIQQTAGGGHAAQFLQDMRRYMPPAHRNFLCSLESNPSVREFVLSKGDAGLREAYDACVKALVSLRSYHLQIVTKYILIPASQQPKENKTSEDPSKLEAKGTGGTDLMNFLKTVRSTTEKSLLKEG
Chain of IDO1 enzyme (P14902 whole entry): as above

Take `O=C(Nc1cc[nH]c1)Nc1nonc1/C(=N/O)Nc1ccc(F)c(Br)c1` [Embodiment 40, (Z)-1-(4-(N-(3-bromo-4-fluorophenyl)-N′-hydroxyaminoiminomethyl)-1,2,5-oxadiazole-3-substituted)-3-(1H-pyrrole-3-substituted)urea]: the IC50 in test [1] and in test [2] was 0.1 to 1 µM throughout.

`O=C(Nc1ccoc1)Nc1nonc1/C(=N/O)Nc1ccc(F)c(Br)c1` [Embodiment 41, (Z)-1-(4-(N-(3-bromo-4-fluorophenyl)-N′-hydroxyaminoiminomethyl)-1,2,5-oxadiazole-3-substituted)-3-(furan-3-substituted)urea]: the half-inhibitory concentration (IC50) in test [1] and in test [2] was 0.1 to 1 µM each time.

With `O=C(Nc1ccsc1)Nc1nonc1/C(=N/O)Nc1ccc(F)c(Br)c1` [Embodiment 42, (Z)-1-(4-(N-(3-bromo-4-fluorophenyl)-N′-hydroxyaminoiminomethyl)-1,2,5-oxadiazole-3-substituted)-3-(thiophene-3-substituted)urea], the IC50 in test [1] and in test [2] was over 1 µM each time.

In the case of `O=C(Nc1ncccn1)Nc1nonc1/C(=N/O)Nc1ccc(F)c(Br)c1` [Embodiment 43, (Z)-1-(4-(N-(3-bromo-4-fluorophenyl)-N′-hydroxyaminoiminomethyl)-1,2,5-oxadiazole-3-substituted)-3-(pyrimidine-2-substituted)urea], the IC50 in test [1] and in test [2] was over 1 µM throughout.

Take `O=C(Nc1ncncn1)Nc1nonc1/C(=N/O)Nc1ccc(F)c(Br)c1` [Embodiment 44, (Z)-1-(4-(N-(3-bromo-4-fluorophenyl)-N′-hydroxyaminoiminomethyl)-1,2,5-oxadiazole-3-substituted)-3-(1,3,5-triazine-2-substituted)urea]: the IC50 in test [1] and in test [2] was over 1 µM in each case.

In the case of `O=C(Nc1ccncn1)Nc1nonc1/C(=N/O)Nc1ccc(F)c(Br)c1` [Embodiment 45, (Z)-1-(4-(N-(3-bromo-4-fluorophenyl)-N′-hydroxyaminoiminomethyl)-1,2,5-oxadiazole-3-substituted)-3-(pyrimidine-4-substituted)urea], the IC50 in test [1] and in test [2] was over 1 µM in each case.

As to `O=C(Nc1ncc[nH]1)Nc1nonc1/C(=N/O)Nc1ccc(F)c(Br)c1` [Embodiment 46, (Z)-1-(4-(N-(3-bromo-4-fluorophenyl)-N′-hydroxyaminoiminomethyl)-1,2,5-oxadiazole-3-substituted)-3-(1H-imidazole-2-substituted)urea], the IC50 in test [1] and in test [2] was over 1 µM each time.

As for `O=C(Nc1nonc1/C(=N/O)Nc1ccc(F)c(Br)c1)NC1CCOC1` (centres unmarked) [Embodiment 47, (Z)-1-(4-(N-(3-bromo-4-fluorophenyl)-N′-hydroxyaminoiminomethyl)-1,2,5-oxadiazole-3-substituted)-3-(tetrahydrofuran-substituted)urea], the IC50 in test [1] and in test [2] was 0.1 to 1 µM in each case.

`O=C(Nc1nonc1/C(=N/O)Nc1ccc(F)c(Br)c1)N1CCNCC1` [Embodiment 48, (Z)-1-(4-(N-(3-bromo-4-fluorophenyl)-N′-hydroxyaminoiminomethyl)-1,2,5-oxadiazole-3-substituted)piperazine-1-carbamide]: the 50% inhibitory concentration (IC50) in test [1] and in test [2] was 0.1 to 1 µM throughout.

For the molecule `O=C(Nc1nonc1/C(=N/O)Nc1ccc(F)c(Br)c1)N1CCOCC1` [Embodiment 49, (Z)-1-(4-(N-(3-bromo-4-fluorophenyl)-N′-hydroxyaminoiminomethyl)-1,2,5-oxadiazole-3-substituted)morpholine-1-carbamide], the IC50 in test [1] and in test [2] was 0.1 to 1 µM throughout.

On to `CS(=O)(=O)N1CCN(C(=O)Nc2nonc2/C(=N/O)Nc2ccc(F)c(Br)c2)CC1` [Embodiment 50], for which the IC50 in test [1] and in test [2] was 0.1 to 1 µM each time.

In the case of `O=C(Nc1ccccc1)Nc1nonc1/C(=N/O)Nc1ccc(F)cc1` [Embodiment 51, (Z)-1-(4-(N-(4-fluorophenyl)-N′-hydroxyaminoiminomethyl)-1,2,5-oxadiazole-3-substituted)-3-phenylurea], the concentration for half-maximal inhibition (IC50) in test [1] and in test [2] was 0.1 to 1 µM in each case.

As for `O=C(Nc1nonc1/C(=N/O)Nc1ccc(F)cc1)NC1CCCCC1` [Embodiment 52, (Z)-1-(4-(N-(4-fluorophenyl)-N′-hydroxyaminoiminomethyl)-1,2,5-oxadiazole-3-substituted)-3-cyclohexylurea], the IC50 in test [1] and in test [2] was 0.1 to 1 µM throughout.

`CS(=O)(=O)N1CCN(C(=O)Nc2nonc2/C(=N/O)Nc2ccc(F)cc2)CC1` [Embodiment 53]: the IC50 in test [1] and in test [2] was 0.1 to 1 µM throughout.

Take `COc1ccc(NC(=O)Nc2nonc2/C(=N/O)Nc2ccc(F)cc2)cc1` [Embodiment 54, (Z)-1-(4-(N-(4-fluorophenyl)-N′-hydroxyaminoiminomethyl)-1,2,5-oxadiazole-3-substituted)-3-(4-methoxyphenyl)urea]: the IC50 in test [1] and in test [2] was 0.1 to 1 µM in each case.

With `O=C(Nc1nonc1/C(=N/O)Nc1ccc(F)cc1)NC1CCC(O)CC1` (centres unmarked) [Embodiment 55], the IC50 in test [1] and in test [2] was under 0.001 µM throughout.

Take `NS(=O)(=O)N1CCN(C(=O)Nc2nonc2/C(=N/O)Nc2ccc(F)cc2)CC1` [Embodiment 56]: the IC50 in test [1] and in test [2] was under 0.001 µM each time.

In the case of `N#Cc1ccc(NC(=O)Nc2nonc2/C(=N/O)Nc2ccc(F)cc2)cc1` [Embodiment 57, (Z)-1-(4-(N-(4-fluorophenyl)-N′-hydroxyaminoiminomethyl)-1,2,5-oxadiazole-3-substituted)-3-(4-cyanophenyl)urea], the IC50 in test [1] and in test [2] was over 1 µM throughout.

Take `COc1ccc(NC(=O)Nc2cocc2/C(=N/O)Nc2ccc(F)c(Br)c2)cc1` [Embodiment 58, (Z)-1-(4-(N-(3-bromo-4-fluorophenyl)-N′-hydroxyaminoiminomethyl)-furan-3-substituted)-3-(4-methoxyphenyl)urea]: the IC50 in test [1] and in test [2] was 0.1 to 1 µM throughout.

Regarding `COc1cccc(NC(=O)Nc2cocc2/C(=N/O)Nc2ccc(F)c(Br)c2)c1` [Embodiment 59, (Z)-1-(4-(N-(3-bromo-4-fluorophenyl)-N′-hydroxyaminoiminomethyl)-furan-3-substituted)-3-(3-methoxyphenyl)urea], the IC50 in test [1] and in test [2] was over 1 µM throughout.

For `O=C(Nc1ccccc1)Nc1cocc1/C(=N/O)Nc1ccc(F)c(Br)c1` [Embodiment 60, (Z)-1-(4-(N-(3-bromo-4-fluorophenyl)-N′-hydroxyaminoiminomethyl)-furan-3-substituted)-3-phenylurea], the IC50 in test [1] and in test [2] was over 1 µM each time.

In the case of `O=C(Nc1cocc1/C(=N/O)Nc1ccc(F)c(Br)c1)NC1CCCCC1` [Embodiment 61, (Z)-1-(4-(N-(3-bromo-4-fluorophenyl)-N′-hydroxyaminoiminomethyl)-furan-3-substituted)-3-cyclohexylurea], the IC50 in test [1] and in test [2] was 0.1 to 1 µM in each case.

In the case of `O=C(Nc1cocc1/C(=N/O)Nc1ccc(F)c(Br)c1)NC1CCCC1` [Embodiment 62, (Z)-1-(4-(N-(3-bromo-4-fluorophenyl)-N′-hydroxyaminoiminomethyl)-furan-3-substituted)-3-cyclopentylurea], the IC50 in test [1] and in test [2] was 0.1 to 1 µM in each case.

As for `O=C(Nc1cocc1/C(=N/O)Nc1ccc(F)c(Br)c1)NC1CCC(O)CC1` (centres unmarked) [Embodiment 63, (Z)-1-(4-(N-(3-bromo-4-fluorophenyl)-N′-hydroxyaminoiminomethyl)-furan-3-substituted)-3-(4-hydroxycyclohexyl)urea], the IC50 in test [1] and in test [2] was under 0.001 µM each time.

Consider `O=C(Nc1cocc1/C(=N/O)Nc1ccc(F)c(Br)c1)NC1CCNCC1` [Embodiment 64, (Z)-1-(4-(N-(3-bromo-4-fluorophenyl)-N′-hydroxyaminoiminomethyl)-furan-3-substituted)-3-(piperidine-4-substituted)urea], for which the IC50 in test [1] and in test [2] was 0.1 to 1 µM in each case.

In the case of `O=C(Nc1cocc1/C(=N/O)Nc1ccc(F)c(Br)c1)NC1CC1` [Embodiment 65], the 50% inhibitory concentration (IC50) in test [1] and in test [2] was 0.1 to 1 µM each time.

As to `NC1CCC(NC(=O)Nc2cocc2/C(=N/O)Nc2ccc(F)c(Br)c2)CC1` (centres unmarked) [Embodiment 66, (Z)-1-(4-(N-(3-bromo-4-fluorophenyl)-N′-hydroxyaminoiminomethyl)-furan-3-substituted)-3-(4-aminocyclohexyl)urea], the IC50 in test [1] and in test [2] was 0.1 to 1 µM in each case.

In the case of `NCCCNC(=O)Nc1cocc1/C(=N/O)Nc1ccc(F)c(Br)c1` [Embodiment 67, (Z)-1-(4-(N-(3-bromo-4-fluorophenyl)-N′-hydroxyaminoiminomethyl)-furan-3-substituted)-3-(3-aminopropyl)urea], the IC50 in test [1] and in test [2] was 0.1 to 1 µM in each case.

Usually IC50 stands for the concentration at which inhibition is half-maximal. Low readings indicate greater potency, high ones weaker potency.
